{"source": "patent US5635391A", "about": "“Isolated DNA encoding a nitrilase polypeptide, hosts containing, and expression thereof optionally assisted by a E. coli GroE chaperone polypeptide” (priority 1992, dated 1997)", "key": {"E. coli (pXL2087) [1]": {"test_system": "E. coli (pXL2087)", "assay": "Activity of immobilized and free E. coli (pXL2087) cells on adiponitrile", "type": "cell-based", "settings": "25° C., pH 7, 50 mM adiponitrile", "experimental": "The cells were fixed according to the following protocol:\nThe gram of cells was suspended in the polyazetidine solution. After homogenization, the resin was poured into the cell suspension. The whole was stirred with a spatula and then left to dry for 18 h, open to the air, under a hood. 4 ml or 1.3 g of biocatalyst were thus collected. The activities of the immobilized and free cells were determined at 25° C. and pH 7 on a 50 mM solution of adiponitrile. They are respectively 30 and 110 μmol of […]/h/mg of cells DW, from which a fixing yield of 26% is deduced."}, "purified nitrilase [2]": {"molecular_target": "T1, purified nitrilase (Comamonas testosteroni, UniProt Q59329)", "T1 construct": "about 280 kDa oligomer of about 38 kDa subunits", "T1 sequence (Q59329 entry or part of it)": "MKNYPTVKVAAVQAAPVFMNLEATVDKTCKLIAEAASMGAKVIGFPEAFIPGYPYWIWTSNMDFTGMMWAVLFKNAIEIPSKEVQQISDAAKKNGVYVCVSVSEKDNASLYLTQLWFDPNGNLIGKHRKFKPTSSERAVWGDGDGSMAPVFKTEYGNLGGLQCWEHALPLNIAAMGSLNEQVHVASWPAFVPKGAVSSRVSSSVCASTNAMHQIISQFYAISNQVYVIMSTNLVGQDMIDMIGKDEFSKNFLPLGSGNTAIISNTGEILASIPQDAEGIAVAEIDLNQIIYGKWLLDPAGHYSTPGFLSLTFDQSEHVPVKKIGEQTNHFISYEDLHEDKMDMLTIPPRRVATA", "assay": "Relative activity of the purified nitrilase on various nitriles", "type": "biochemical, Comamonas testosteroni sp.", "settings": "acetate buffer 10 mM, pH 4; substrate 10 mM; 25° C.", "experimental": "The activities of the purified nitrilase were measured on adiponitrile, 5-cyanovaleramide, 5-cyanovaleric acid, benzonitrile, propionitrile and acrylonitrile.\nCOMMON CONDITIONS: acetate buffer=10 mM, pH 4; substrate=10 mM; volume=3 ml; T=25° C.; reaction time=1 or 3 h; proteins: from 5 to 30 μg/ml."}, "[3]": {"test_system": "E. coli (pXL2087) immobilized on resin", "assay": "Hydrolysis of adiponitrile in a fixed bed reactor with immobilized E. coli (pXL2087)", "type": "cell-based", "settings": "28° C., adiponitrile 50 mM, pH 7, flow rate 3.7 ml/h", "experimental": "The half-life is determined in a continuously fed fixed bed reactor under the conditions indicated below:\nT 28° C.; catalyst 0.5 g or 2 ml or 85 mg of cells (dry weight); [adiponitrile] 50 mM; phosphate buffer 50 mM, pH 7; flow rate 3.7±0.1 ml/h; column: diameter 1 cm, height 3 cm.\nThe initial activity of the cells was 1.5 μmol of adipate/h/mg of cells (dry weight). 66% of the initial activity is preserved after 32 days or 770 h."}, "E. coli TG1 pXL2035,2158": {"test_system": "E. coli TG1 pXL2035,2158", "assay": "Nitrilase activity of recombinant strain E. coli TG1 pXL2035,2158", "type": "cell-based", "settings": "no IPTG; whole cells; DW 0.06 g/l; 1 ml; pH 7.0; substrate 50 mM", "experimental": "(§1) The activities of these strains, induced or non-induced, are measured on adiponitrile and 5-cyanovalerate at different pH values and are compared with the negative control strains: E. coli TG1, E. coli TG1 (pXL2035) and Pseudomonas putida G2081.\n(§2) The cultures are carried out under the conditions described in Table 4. During the exponential growth phase, one of the two cultures of the recombinant strain is induced with 1 mM IPTG; after 2 h at 37° C., this culture is treated.\n(§3) The conditions of the specific activity measurements and the results are collated in Table 5.\n(§4) COMMON CONDITIONS: [substrate]=50 mM; T=25° C.; buffer 50 mM; kinetics over 90 min for 1 to 3 and over 120 min for 4 to 8.\n(§5) ABBREVIATIONS: W=whole cells; S=sonicated cells; Ua=μmols of cyanovalerate produced/h; Ub=μmols of adipate produced/h; AdN=adiponitrile; CVA=5-cyanovalerate. DW=dry weight."}, "E. coli TG1 pXL2158": {"test_system": "E. coli TG1 pXL2158", "assay": "Nitrilase activity of recombinant strain E. coli TG1 pXL2158", "type": "cell-based", "settings": "no IPTG; whole cells; DW 0.24 g/l; 1 ml; pH 7.0; substrate 50 mM", "experimental": "as §1, §2, §3, §4, §5"}, "E. coli TG1 pXL2087": {"test_system": "E. coli TG1 pXL2087", "assay": "Nitrilase activity of recombinant strain E. coli TG1 pXL2087", "type": "cell-based", "settings": "substrate 50 mM; for Activity Ua: DW 0.3 g/l, pH 4.2", "experimental": "as §1, §2, §3, §4, §5"}, "[4]": {"test_system": "Comamonas testosteroni sp.", "assay": "Enzymatic activity of Comamonas testosteroni sp. cells on adiponitrile", "type": "cell-based", "settings": "52.3 mM adiponitrile, pH 7, 25° C.; 1 U = 1 μmol of product formed per minute", "experimental": "A cellular residue containing 13.1 mg of dry weight of cells was suspended in 2 ml of a 52.3 mM solution of adiponitrile in 50 mM potassium phosphate buffer, pH 7. The reaction was carried out at 25° C., with shaking, and the kinetics were followed by sampling. 5-Cyanovaleramide, adipamide, 5-cyanovalerate, adipamate and adipate were determined on each sample by high performance liquid chromatography (HPLC). […] The respective rates of formation of cyanovalerate and adipate were greater than 0.45 and equal to 0.15 U/mg of dry weight of cells (1 U is equal to 1 μmol of product formed per minute)."}, "purified nitrilase [5]": {"molecular_target": "T1, purified nitrilase", "assay": "Activity of the purified nitrilase as a function of the pH", "type": "biochemical, Comamonas testosteroni sp.", "settings": "substrate 10 mM, 25° C., U = μmol of cyanovalerate formed/h", "experimental": "The purified nitrilase was tested at different pH values on two substrates, adiponitrile and 5-cyanovalerate, under the conditions indicated in Table 2 below.\nCOMMON CONDITIONS: [substrate]=10 mM; buffer 10 mM; T 25° C.; [nitrilase]=12 μg/ml for cyanovalerate and 3 μg/ml for adiponitrile (fraction, step 6); U (adiponitrile)=μmol of cyanovalerate formed/h, U (cyanovalerate)=μmol of adipate formed/h."}, "E. coli TG1 pXL2035": {"test_system": "E. coli TG1 pXL2035", "assay": "Nitrilase activity of control strain E. coli TG1 pXL2035", "type": "cell-based", "settings": "no IPTG; whole cells; DW 0.06 g/l; 1 ml; pH 7.0; substrate 50 mM", "experimental": "as §1, §2, §3, §4, §5"}, "E. coli (pXL2087) [6]": {"test_system": "E. coli (pXL2087)", "assay": "Batch hydrolysis of adiponitrile with E. coli (pXL2087) in suspension", "type": "cell-based", "settings": "pH 7, 25° C., cells 21 g/l", "experimental": "120 μl or 1068 μmol of adiponitrile were added at 25° C. and with magnetic stirring, at the reaction times 0, 1, 2, 3, 5, 6 and 7 h, to an initial volume of 5 ml of 50 mM phosphate buffer, pH 7, containing the strain E. coli (pXL2087) at an initial concentration of 21 g/l. The reaction was monitored analytically by taking 100 μl samples of the reaction volume every hour.\nThe mean activities calculated over 30 min after addition of the adiponitrile are collated in Table 6 below."}, "P. putida G2081 pDSK519": {"test_system": "P. putida G2081 pDSK519", "assay": "Nitrilase activity of control strain P. putida G2081 pDSK519", "type": "cell-based, Pseudomonas putida", "settings": "no IPTG; whole cells; DW 0.3 g/l; 1 ml; pH 7.0; substrate 50 mM", "experimental": "as §1, §2, §3, §4, §5"}}}
{"compound": "N#CCCCCC#N", "note": "[Adiponitrile, adiponitrile]", "values": [{"measurement": "activity of the free cells", "setting": "E. coli (pXL2087) [1]", "result": "110 μmol of 2-cyanovalerate/h/mg of cells DW"}, {"measurement": "activity of the immobilized cells", "setting": "E. coli (pXL2087) [1]", "result": "30 μmol of 2-cyanovalerate/h/mg of cells DW"}, {"measurement": "RELATIVE ACTIVITY", "setting": "purified nitrilase [2]", "result": 100, "unit": "%"}, {"measurement": "initial activity of the cells", "setting": "[3]", "result": "1.5 μmol of adipate/h/mg of cells (dry weight)"}, {"measurement": "Activity Ua", "setting": "E. coli TG1 pXL2035,2158", "result": "1500 μmols of cyanovalerate produce"}, {"measurement": "Activity Ua", "setting": "E. coli TG1 pXL2158", "result": "270 μmols of cyanovalerate produce"}, {"measurement": "Activity Ub", "setting": "E. coli TG1 pXL2087; +IPTG, sonicated cells, DW 1.4 g/l, 2 ml, pH 6.2", "result": "17 μmols of adipate produced/h"}, {"measurement": "Activity Ub", "setting": "E. coli TG1 pXL2087; +IPTG, sonicated cells, DW 1.4 g/l, 2 ml, pH 7.0", "result": "10 μmols of adipate produced/h"}, {"measurement": "Activity Ua", "setting": "E. coli TG1 pXL2087; +IPTG, whole cells, 1 ml", "result": "159 μmols of cyanovalerate produce"}, {"measurement": "Activity Ub", "setting": "E. coli TG1 pXL2087; +IPTG, whole cells, DW 1.4 g/l, 1 ml, pH 4.3", "result": "38 μmols of adipate produced/h"}, {"measurement": "Activity Ub", "setting": "E. coli TG1 pXL2087; +IPTG, whole cells, DW 1.4 g/l, 2 ml, pH 6.2", "result": "18 μmols of adipate produced/h"}, {"measurement": "Activity Ub", "setting": "E. coli TG1 pXL2087; +IPTG, whole cells, DW 1.4 g/l, 2 ml, pH 7.0", "result": "11 μmols of adipate produced/h"}, {"measurement": "Activity Ub", "setting": "E. coli TG1 pXL2087; no IPTG, sonicated cells, DW 1.0 g/l, 1 ml, pH 6.2", "result": "3 μmols of adipate produced/h"}, {"measurement": "Activity Ub", "setting": "E. coli TG1 pXL2087; no IPTG, sonicated cells, DW 1.0 g/l, 1 ml, pH 7.0", "result": "4 μmols of adipate produced/h"}, {"measurement": "Activity Ua", "setting": "E. coli TG1 pXL2087; no IPTG, whole cells, 1 ml", "result": "75 μmols of cyanovalerate produce"}, {"measurement": "Activity Ub", "setting": "E. coli TG1 pXL2087; no IPTG, whole cells, DW 1.2 g/l, 2 ml, pH 4.3", "result": "16 μmols of adipate produced/h"}, {"measurement": "Activity Ub", "setting": "E. coli TG1 pXL2087; no IPTG, whole cells, DW 1.2 g/l, 2 ml, pH 6.2", "result": "11 μmols of adipate produced/h"}, {"measurement": "Activity Ub", "setting": "E. coli TG1 pXL2087; no IPTG, whole cells, DW 1.2 g/l, 2 ml, pH 7.0", "result": "3.4 μmols of adipate produced/h"}, {"measurement": "rate of formation of adipate", "setting": "[4]", "result": "0.15 U/mg of dry weight of cells"}, {"measurement": "rate of formation of cyanovalerate", "setting": "[4]", "result": "greater than 0.45 U/mg of dry weight of cells"}, {"measurement": "SPECIFIC ACTIVITY", "setting": "purified nitrilase [5]; Acetate pH 3.0", "result": "2,300 U/mg of protein"}, {"measurement": "SPECIFIC ACTIVITY", "setting": "purified nitrilase [5]; Acetate pH 4.0", "result": "2,900 U/mg of protein"}, {"measurement": "SPECIFIC ACTIVITY", "setting": "purified nitrilase [5]; Acetate pH 4.5", "result": "2,800 U/mg of protein"}, {"measurement": "SPECIFIC ACTIVITY", "setting": "purified nitrilase [5]; Acetate pH 5.0", "result": "2,700 U/mg of protein"}, {"measurement": "SPECIFIC ACTIVITY", "setting": "purified nitrilase [5]; Phosphate pH 6.0", "result": "2,900 U/mg of protein"}, {"measurement": "SPECIFIC ACTIVITY", "setting": "purified nitrilase [5]; Phosphate pH 7.0", "result": "2,700 U/mg of protein"}, {"measurement": "SPECIFIC ACTIVITY", "setting": "purified nitrilase [5]; Phosphate pH 8.0", "result": "2,800 U/mg of protein"}, {"measurement": "Activity Ua", "setting": "E. coli TG1 pXL2035", "result": "0 μmols of cyanovalerate produce"}, {"measurement": "Activity Ub", "setting": "E. coli TG1 pXL2035", "result": "0 μmols of adipate produced/h"}, {"measurement": "SPECIFIC ACTIVITY (mean over 30 min after addition of adiponitrile)", "setting": "E. coli (pXL2087) [6]; reaction time 0.5 h", "result": "16 μmol of adipate/h x mg of dry cells"}, {"measurement": "SPECIFIC ACTIVITY (mean over 30 min after addition of adiponitrile)", "setting": "E. coli (pXL2087) [6]; reaction time 2.5 h", "result": "15 μmol of adipate/h x mg of dry cells"}, {"measurement": "SPECIFIC ACTIVITY (mean over 30 min after addition of adiponitrile)", "setting": "E. coli (pXL2087) [6]; reaction time 5.5 h", "result": "11 μmol of adipate/h x mg of dry cells"}, {"measurement": "SPECIFIC ACTIVITY (mean over 30 min after addition of adiponitrile)", "setting": "E. coli (pXL2087) [6]; reaction time 6.5 h", "result": "11 μmol of adipate/h x mg of dry cells"}, {"measurement": "SPECIFIC ACTIVITY (mean over 30 min after addition of adiponitrile)", "setting": "E. coli (pXL2087) [6]; reaction time 7.7 h", "result": "15 μmol of adipate/h x mg of dry cells"}, {"measurement": "Activity Ua", "setting": "P. putida G2081 pDSK519", "result": "0 μmols of cyanovalerate produce"}]}
